From publication PMC8843313, “Highly potent inhibitors of cathepsin K with a differently positioned cyanohydrazide warhead: structural analysis of binding mode to mature and zymogen-like enzymes” (Journal of Enzyme Inhibition and Medicinal Chemistry, 2022) come the findings set out here.

Test [1] deals with T1, cathepsin K (mature, mCatK) (Homo sapiens, UniProt P43235).
T1 construct: gene CTSK; mature CatK, model residues Ala1 to Met215 plus N-terminal Gly-Arg (98p–99p) (from recombinant zymogen expressed in Pichia pastoris)
T1 sequence (P43235 113-329): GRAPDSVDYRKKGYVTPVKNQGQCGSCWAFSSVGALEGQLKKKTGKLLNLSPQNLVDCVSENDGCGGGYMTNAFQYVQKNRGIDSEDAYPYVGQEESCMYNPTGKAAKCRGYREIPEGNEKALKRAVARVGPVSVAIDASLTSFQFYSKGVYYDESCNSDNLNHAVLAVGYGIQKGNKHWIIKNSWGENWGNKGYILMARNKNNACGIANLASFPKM
The test is described as follows: crystal structure […] Å (also with iCatK, 7QBO); Ki by slow-binding fluorogenic enzyme assay. The class given is biochemical. Particulars: read-out: mCatK inhibition^a / Ki.

The target of test [2] is T2, cathepsin K (mature, mCatK) (Homo sapiens, UniProt P43235).
T2 construct: gene CTSK; mature CatK, model residues Ala1 to Met215 (from recombinant zymogen expressed in Pichia pastoris)
T2 sequence (P43235 115-329): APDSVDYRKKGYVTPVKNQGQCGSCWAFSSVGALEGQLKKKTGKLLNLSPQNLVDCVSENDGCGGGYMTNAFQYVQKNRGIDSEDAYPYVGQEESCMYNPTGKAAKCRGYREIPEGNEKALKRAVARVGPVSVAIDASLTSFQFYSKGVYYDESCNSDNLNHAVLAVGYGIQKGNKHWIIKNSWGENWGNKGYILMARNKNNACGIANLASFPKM
The test is described as follows: crystal structure […] Å (also with iCatK, 7QBM); Ki by fluorogenic enzyme assay (Morrison). Type of test: biochemical. Particulars: read-out: mCatK inhibition^a / Ki.

`CN(C#N)N(C)C(=O)[C@H](Cc1ccccc1)NC(=O)OCc1ccccc1` [Gü1303]: in test [1], the Ki came to 910 pM.
Turning to `CN(Cc1ccccc1)C(=O)CN(C#N)NC(=O)OC(C)(C)C` [Gü2602], the Ki in test [2] came out at 13 pM.
